Reference: ChEMBL document CHEMBL1201862, “PubChem BioAssay data set” (2004)
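Protocol summary: plate cells (96-well), add compound at 5 concentrations, incubate 48 h, interpolate endpoints linearly. At the GI50, growth is halved.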 Activity calls are given as the source filed them. No stated cut-off is given here; in the data, active = GI50 up to about 1.1 µM and inactive = higher.

What was measured:
Assay in all cases: DTP human tumour cell line panel, 48 h
SK-MEL-2 = tested on: SK-MEL-2
SNB-75 = tested on: SNB-75
BT-549 = tested on: BT-549
MDA-MB-435 = tested on: MDA-MB-435
OVCAR-4 = tested on: OVCAR-4
OVCAR-3 = tested on: OVCAR-3
OVCAR-8 = tested on: OVCAR-8
HCT-15 = tested on: HCT-15
Hs-578T = tested on: Hs-578T
HOP-92 = tested on: HOP-92
SK-MEL-28 = tested on: SK-MEL-28
SF-295 = tested on: SF-295
SF-539 = tested on: SF-539
DU-145 = tested on: DU-145
COLO 205 = tested on: COLO 205
UACC-257 = tested on: UACC-257
SF-268 = tested on: SF-268
K562 = tested on: K562
KM12 = tested on: KM12
SK-MEL-5 = tested on: SK-MEL-5
RXF 393 = tested on: RXF 393
MDA-N = tested on: MDA-N
MDA-MB-231 = tested on: MDA-MB-231
PC-3 = tested on: PC-3
CAKI-1 = tested on: CAKI-1
NCI-H23 = tested on: NCI-H23
EKVX = tested on: EKVX
IGROV-1 = tested on: IGROV-1
NCI/ADR-RES = tested on: NCI/ADR-RES
A549 = tested on: A549
M14 = tested on: M14
TK-10 = tested on: TK-10
SW-620 = tested on: SW-620
SK-OV-3 = tested on: SK-OV-3
Malme-3M = tested on: Malme-3M
NCI-H226 = tested on: NCI-H226
ACHN = tested on: ACHN
LOX IMVI = tested on: LOX IMVI
UACC-62 = tested on: UACC-62
HOP-62 = tested on: HOP-62
UO-31 = tested on: UO-31
OVCAR-5 = tested on: OVCAR-5
HCC 2998 = tested on: HCC 2998
A498 = tested on: A498
HL-60 = tested on: HL-60
RPMI-8226 = tested on: RPMI-8226
MOLT-4 = tested on: MOLT-4
HCT-116 = tested on: HCT-116
CCRF-CEM = tested on: CCRF-CEM
786-0 = tested on: 786-0
NCI-H460 = tested on: NCI-H460
HT-29 = tested on: HT-29
SR = tested on: SR
SN12C = tested on: SN12C
MCF7 = tested on: MCF7
SNB-19 = tested on: SNB-19
U-251 = tested on: U-251
NCI-H522 = tested on: NCI-H522

Measured: GI50

O=C(O)CN1CCCC(Cc2c[nH]c3ccccc23)C1 (centres undefined)
> 100 µM: HCT-15
inactive: SK-MEL-2 > 100 µM | SNB-75 > 100 µM | BT-549 > 100 µM | MDA-MB-435 > 100 µM | OVCAR-4 > 100 µM | OVCAR-3 > 100 µM | OVCAR-8 > 100 µM | Hs-578T > 100 µM | HOP-92 > 100 µM | SK-MEL-28 > 100 µM | SF-295 > 100 µM | SF-539 > 100 µM | DU-145 > 100 µM | COLO 205 > 100 µM | UACC-257 > 100 µM | SF-268 > 100 µM | K562 40.6 µM | KM12 > 100 µM | SK-MEL-5 > 100 µM | RXF 393 > 100 µM | MDA-N > 100 µM | MDA-MB-231 > 100 µM | PC-3 > 100 µM | CAKI-1 > 100 µM | NCI-H23 > 100 µM | EKVX > 100 µM | IGROV-1 > 100 µM | NCI/ADR-RES > 100 µM | A549 > 100 µM | M14 > 100 µM | TK-10 > 100 µM | SW-620 > 100 µM | SK-OV-3 > 100 µM | Malme-3M > 100 µM | NCI-H226 > 100 µM | ACHN > 100 µM | LOX IMVI > 100 µM | UACC-62 > 100 µM | HOP-62 > 100 µM | UO-31 > 100 µM | OVCAR-5 > 100 µM | HCC 2998 > 100 µM

O=[N+]([O-])c1ccccc1S(=O)(=O)c1cc(Cl)cc2c1NCCC2
65.6 µM: HCT-15
inactive: SK-MEL-2 43.6 µM | SNB-75 43.4 µM | A498 > 100 µM | BT-549 26.8 µM | MDA-MB-435 35.5 µM | OVCAR-4 > 100 µM | OVCAR-3 > 100 µM | OVCAR-8 > 100 µM | Hs-578T 40.1 µM | HL-60 31.3 µM | HOP-92 91.2 µM | SK-MEL-28 62.8 µM | SF-295 52.2 µM | SF-539 > 100 µM | DU-145 94.6 µM | COLO 205 33.6 µM | RPMI-8226 44.8 µM | MOLT-4 31.8 µM | UACC-257 35.6 µM | SF-268 > 100 µM | HCT-116 41.7 µM | CCRF-CEM 36.1 µM | K562 37.5 µM | KM12 85.9 µM | 786-0 80 µM | SK-MEL-5 29.7 µM | RXF 393 63 µM | NCI-H460 77.3 µM | MDA-MB-231 34.1 µM | PC-3 52.1 µM | CAKI-1 60.4 µM | EKVX > 100 µM | IGROV-1 48.3 µM | NCI/ADR-RES > 100 µM | A549 65.8 µM | HT-29 70.3 µM | SR 42.8 µM | SN12C 90.6 µM | M14 63 µM | TK-10 > 100 µM | SW-620 > 100 µM | SK-OV-3 > 100 µM | Malme-3M 25.8 µM | NCI-H226 45.5 µM | ACHN 56.6 µM | LOX IMVI 43.9 µM | MCF7 39.4 µM | UACC-62 38.5 µM | HOP-62 > 100 µM | SNB-19 65 µM | UO-31 50.2 µM | OVCAR-5 > 100 µM | HCC 2998 20.1 µM

COc1ccc(OC)c(CNc2ccc(O)c(C(=O)NCCc3ccc(F)cc3)c2)c1
12.6 µM: HCT-15
inactive: SK-MEL-2 8.15 µM | A498 16.4 µM | U-251 11.9 µM | BT-549 17.1 µM | MDA-MB-435 2.74 µM | OVCAR-4 9.95 µM | OVCAR-3 7.57 µM | OVCAR-8 16.2 µM | Hs-578T 22.7 µM | SK-MEL-28 3.3 µM | SF-295 13.7 µM | SF-539 15.8 µM | DU-145 12.8 µM | COLO 205 18.6 µM | RPMI-8226 2.83 µM | MOLT-4 4.05 µM | UACC-257 13.5 µM | SF-268 11.6 µM | HCT-116 12.1 µM | CCRF-CEM 7.23 µM | K562 3.74 µM | KM12 9.71 µM | 786-0 23.8 µM | SK-MEL-5 7.19 µM | NCI-H460 13.2 µM | MDA-N 4.06 µM | MDA-MB-231 7 µM | PC-3 10.1 µM | CAKI-1 21.5 µM | NCI-H23 17.1 µM | EKVX 19.7 µM | IGROV-1 5.68 µM | NCI/ADR-RES 10.1 µM | A549 20.7 µM | HT-29 18 µM | SR 3.44 µM | SN12C 19.5 µM | M14 10.4 µM | TK-10 28.9 µM | SW-620 15.7 µM | SK-OV-3 17.3 µM | ACHN 24 µM | LOX IMVI 11.1 µM | MCF7 10.8 µM | UACC-62 8.89 µM | HOP-62 4.08 µM | SNB-19 15.1 µM | UO-31 7.18 µM | NCI-H522 2.83 µM | OVCAR-5 22.4 µM | HCC 2998 3.58 µM

CC1=CC(=O)/C(=C/NC(=O)NN)C(=O)O1
> 100 µM: HCT-15
inactive: SK-MEL-2 > 100 µM | SNB-75 45.4 µM | U-251 > 100 µM | BT-549 > 100 µM | MDA-MB-435 > 100 µM | OVCAR-4 > 100 µM | OVCAR-3 > 100 µM | OVCAR-8 > 100 µM | Hs-578T > 100 µM | HOP-92 > 100 µM | SK-MEL-28 54.5 µM | SF-295 > 100 µM | SF-539 77.8 µM | DU-145 > 100 µM | COLO 205 > 100 µM | MOLT-4 > 100 µM | UACC-257 > 100 µM | SF-268 > 100 µM | HCT-116 > 100 µM | CCRF-CEM > 100 µM | KM12 > 100 µM | 786-0 > 100 µM | SK-MEL-5 > 100 µM | RXF 393 > 100 µM | NCI-H460 > 100 µM | MDA-N > 100 µM | MDA-MB-231 > 100 µM | PC-3 > 100 µM | CAKI-1 > 100 µM | NCI-H23 > 100 µM | EKVX 34.1 µM | IGROV-1 58.5 µM | NCI/ADR-RES 94.2 µM | A549 > 100 µM | SN12C > 100 µM | M14 > 100 µM | TK-10 > 100 µM | SW-620 > 100 µM | SK-OV-3 > 100 µM | ACHN > 100 µM | LOX IMVI > 100 µM | MCF7 > 100 µM | UACC-62 > 100 µM | HOP-62 > 100 µM | SNB-19 > 100 µM | UO-31 > 100 µM | NCI-H522 > 100 µM | OVCAR-5 > 100 µM | HCC 2998 > 100 µM
